Converted amounts (≈) assume the structure as drawn. Like-named read-outs stand apart in the source and are kept apart here.
Key:
S.pyogenes CN 10 = assay: Minimum Inhibitory Concentration (MIC), agar dilution; type: cell-based; conditions: 5% v/v horse blood agar, two-fold dilutions, read after 24 hours; unit assumed
Experimental: (§1) The following Table gives Minimum Inhibitory Concentration (MIC) values for some of the compounds of the invention against S.pyogenes CN 10 and E.coli NCTC 10418. The E. coli was grown in tryptone soya broth and the S. pyogenes was grown in Todd Hewitt broth. The microorganisms were grown for 24hours and lul samples were then inoculated on to agar plates (comprising 5% v/v live horse blood agar) to which had been added the compounds of the invention at a series of two-fold dilutions.

E.coli NCTC 10418 = assay: as above; type: cell-based; conditions: 5% v/v horse blood agar, two-fold dilutions, read after 24 hours; unit assumed
Experimental: as §1

[1] = Squirrel monkey plasma levels; type: in vivo; conditions: for concentration at 0.25 h: 15 minutes, read-out: Plasma Levels, Time in Minutes 15; for concentration at 0.5 h: 30 minutes, read-out: Plasma Levels, Time in Minutes 30; for concentration at 1 h: 60 minutes, read-out: Plasma Levels, Time in Minutes 60; for concentration at 2 h: 120 minutes, read-out: Plasma Levels, Time in Minutes 120; for concentration at 4 h: 240 minutes, read-out: Plasma Levels, Time in Minutes 240; for concentration at 6 h: 360 minutes, read-out: Plasma Levels, Time in Minutes 360; for AUC: read-out: Area under the curve
E.coli 96 R- [2] = assay: MIC against the infecting strain (Table 4); type: cell-based; conditions: Escherichia coli
S.aureus Smith [3] = assay: MIC against the infecting strain (Table 4); type: cell-based; conditions: Staphylococcus aureus
E.coli 96 R- [4] = assay: CD50, protection of mice infected with a lethal inoculum; type: in vivo; conditions: for ED50: Escherichia coli, 96R, read-out: Total CD50
Source text: (§2) The following Table gives CD50 values obtained after infecting groups of mice with a lethal inoculum of various bacteria and treating the mice with the compounds quoted. The CD50 value then represents the amount of compound necessary to protect 50% of the animals.

S.agalactiae 2798 [5] = assay: as above; type: in vivo; conditions: for ED50: read-out: Total CD50
Source text: as §2

S.aureus Smith [6] = assay: as above; type: in vivo; conditions: for ED50: Staphylococcus aureus, read-out: Total CD50
Source text: as §2

S.agalactiae 2798 [7] = assay: MIC against the infecting strain (Table 4); type: cell-based; conditions: Streptococcus agalactiae
[8] = Streptococcus agalactiae, 2798, po, S.agalactiae 2798, p.o.

MIC S. pyogenes CN 10 (S.pyogenes CN 10) [µg/mL]	MIC E. coli NCTC 10418 (E.coli NCTC 10418) [µg/mL]	SMILES	concentration at 0.25 h [1] [ng/mL]	concentration at 0.5 h [1] [ng/mL]	concentration at 1 h [1] [ng/mL]	concentration at 2 h [1] [ng/mL]	concentration at 4 h [1] [ng/mL]	concentration at 6 h [1] [ng/mL]	AUC [1] [ng·h/mL]	further results
< 0.06	4 (≈ 10.9 µM)	C=C([C@@H](N)C(=O)N[C@@H]1C(=O)N2[C@@H]1SC(C)(C)[C@@H]2C(=O)O)C(F)(F)F [Example 17 (D-stereoisomer), 6,P-(D-2-amino-3-trifluoromethylbut-3-enamido)penicillanic acid]								
< 0.06	8 (≈ 25.5 µM)	C/C=C/[C@@H](N)C(=O)N[C@@H]1C(=O)N2[C@@H]1SC(C)(C)[C@@H]2C(=O)O [Example 11 (D-stereoisomer), 6β-(D-2-Amino-pent-3(E)-enamido)penicillanic acid]								
0.25 (≈ 0.677 µM)	32 (≈ 86.6 µM)	C=C(C)[C@@H](N)C(=O)N[C@@H]1C(=O)N2C(C(=O)O)=C(COC(C)=O)CS[C@H]12 [Example 7, 7,β-(D-2-Amino-3-methylbut-3-enamido)cephalosporanic acid]								
		CC1(C)S[C@@H]2[C@H](NC(=O)[C@H](N)c3ccc(O)cc3)C(=O)N2[C@H]1C(=O)O [Amoxycillin, reference compound]	4800	9700	12600	6700	1100	300	26200	
0.12 (≈ 0.345 µM)	8 (≈ 23 µM)	C/C(=C/Cl)C(N)C(=O)N[C@@H]1C(=O)N2[C@@H]1SC(C)(C)[C@@H]2C(=O)O (stereo partly drawn) [Example 22, 6β-(D,L-2-Amino-4-chloro-3-methylbut-3(Z)-enamido) penicillanic acid]								
0.06 (≈ 0.157 µM)	16 (≈ 41.9 µM)	C=C(c1cccs1)[C@@H](N)C(=O)N[C@@H]1C(=O)N2[C@@H]1SC(C)(C)[C@@H]2C(=O)O [Example 18 (D-stereoisomer), 6β-(D-2-amino-3-thien-2-yl-but-3-enamido)penicillanic acid]								
0.06 (≈ 0.173 µM)	4 (≈ 11.5 µM)	C/C(=C\Cl)[C@@H](N)C(=O)N[C@@H]1C(=O)N2[C@@H]1SC(C)(C)[C@@H]2C(=O)O [Example 21 (D-stereoisomer), 6β-(D-2-Amino-4-chloro-3-methylbut-3(E)-enamido)-penicillanic acid]								
0.03 (≈ 0.1 µM)	8 (≈ 26.7 µM)	C=C[C@@H](N)C(=O)N[C@@H]1C(=O)N2[C@@H]1SC(C)(C)[C@@H]2C(=O)O [Example 1, 6β-(D-2-Aminobut-3-enamido)penicillanic acid]	4000	14700	32700	15700	2400	800	59700	
< 0.03	8 (≈ 21.3 µM)	C=C(c1ccccc1)[C@@H](N)C(=O)N[C@@H]1C(=O)N2[C@@H]1SC(C)(C)[C@@H]2C(=O)O [Example 4 (D-stereoisomer), 6β-(D-2-amino-3-phenylbut-3-enamido)penicillanic acid]								

SMILES	MIC S. pyogenes CN 10 (S.pyogenes CN 10) [µg/mL]	MIC E. coli NCTC 10418 (E.coli NCTC 10418) [µg/mL]	concentration at 0.25 h [1] [ng/mL]	concentration at 0.5 h [1] [ng/mL]	concentration at 1 h [1] [ng/mL]	concentration at 2 h [1] [ng/mL]	concentration at 4 h [1] [ng/mL]	concentration at 6 h [1] [ng/mL]	AUC [1] [ng·h/mL]	further results
CC1(C)S[C@@H]2[C@H](NC(=O)[C@H](N)C=C(Cl)Cl)C(=O)N2[C@H]1C(=O)O [Example 5 (D-stereoisomer), 6β-(D-2-amino-4,4-dichlorobut-3-enamido)penicillanic acid]	< 0.03	2 (≈ 5.43 µM)	20700	28800	24300	16800	2400	1400	63000	MIC (E.coli 96 R- [2]): 2 µg/mL (≈ 5.43 µM); MIC (S.aureus Smith [3]): 0.06 µg/mL (≈ 0.163 µM); ED50 (E.coli 96 R- [4]; po): 40 mg/kg; ED50 (E.coli 96 R- [4]; sc): 22 mg/kg; Total CD50 (S.agalactiae 2798 [5]; S.agalactiae 2798, p.o.): 0.6 mg/kg; ED50 (S.agalactiae 2798 [5]; [8]): 0.9 mg/kg; ED50 (S.aureus Smith [6]; sc): 0.08 mg/kg; Total CD50 (S.aureus Smith [6]; s.c.): 0.09 mg/kg; MIC (S.agalactiae 2798 [7]): 0.06 µg/mL (≈ 0.163 µM)
C=C(C)[C@@H](N)C(=O)N[C@@H]1C(=O)N2[C@@H]1SC(C)(C)[C@@H]2C(=O)O [Example 6, 6,β-(D-2-Amino-3-methylbut-3-enamido)penicillanic-acid]	< 0.03	2 (≈ 6.38 µM)	8700	16400	20000	13000	2200	900	46500	MIC (E.coli 96 R- [2]): 4 µg/mL (≈ 12.8 µM); MIC (S.aureus Smith [3]): 0.12 µg/mL (≈ 0.383 µM); ED50 (E.coli 96 R- [4]; po): 32 mg/kg; Total CD50 (E.coli 96 R- [4]; p.o.): 40 mg/kg; Total CD50 (S.agalactiae 2798 [5]; S.agalactiae 2798, p.o.): 3.8 mg/kg; Total CD50 (S.agalactiae 2798 [5]; S.agalactiae 2798, s.c.): 1.1 mg/kg; ED50 (S.agalactiae 2798 [5]; [8]): 3.6 mg/kg; ED50 (S.agalactiae 2798 [5]; Streptococcus agalactiae, 2798, sc, S.agalactiae 2798, s.c.): 1.5 mg/kg; ED50 (S.aureus Smith [6]; po): 0.08 mg/kg; ED50 (S.aureus Smith [6]; sc): 0.15 mg/kg; Total CD50 (S.aureus Smith [6]; p.o.): 0.10 mg/kg; MIC (S.agalactiae 2798 [7]): 0.25 µg/mL (≈ 0.798 µM)

Reference: patent EP0209237A2, “Vinyl-glycyl-amino-beta-lactam derivatives” (BEECHAM GROUP PLC, priority 1985, dated 1987)
